target: T1, human PAD4 (Homo sapiens, UniProt Q9UM07); assay: In vitro PAD4 BAEE biochemical assay; conditions: human PAD4, BAEE substrate; 5 nM PAD4, 2 mM calcium chloride, 3 mM BAEE; geometric mean of multiple experiments
T1 construct: human PAD4 (NM_012387), A2P663, was PCR amplified; His-SUMO (N, cleaved yes); made in house; host or cells: E. coli BL21(DE3)
Outline: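 Ammonia release from BAEE deimination monitored by o-phthalaldehyde amine coupling (1 h, 25 °C) after EDTA stop. Final conditions: 5 nM tag-free recombinant human PAD4 (E. coli), 2 mM CaCl2, 3 mM BAEE, pH 7.6 MOPS with DTT; 30 min compound preincubation, then 2 h reaction at 25 °C.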

T1 sequence (Q9UM07 2-663): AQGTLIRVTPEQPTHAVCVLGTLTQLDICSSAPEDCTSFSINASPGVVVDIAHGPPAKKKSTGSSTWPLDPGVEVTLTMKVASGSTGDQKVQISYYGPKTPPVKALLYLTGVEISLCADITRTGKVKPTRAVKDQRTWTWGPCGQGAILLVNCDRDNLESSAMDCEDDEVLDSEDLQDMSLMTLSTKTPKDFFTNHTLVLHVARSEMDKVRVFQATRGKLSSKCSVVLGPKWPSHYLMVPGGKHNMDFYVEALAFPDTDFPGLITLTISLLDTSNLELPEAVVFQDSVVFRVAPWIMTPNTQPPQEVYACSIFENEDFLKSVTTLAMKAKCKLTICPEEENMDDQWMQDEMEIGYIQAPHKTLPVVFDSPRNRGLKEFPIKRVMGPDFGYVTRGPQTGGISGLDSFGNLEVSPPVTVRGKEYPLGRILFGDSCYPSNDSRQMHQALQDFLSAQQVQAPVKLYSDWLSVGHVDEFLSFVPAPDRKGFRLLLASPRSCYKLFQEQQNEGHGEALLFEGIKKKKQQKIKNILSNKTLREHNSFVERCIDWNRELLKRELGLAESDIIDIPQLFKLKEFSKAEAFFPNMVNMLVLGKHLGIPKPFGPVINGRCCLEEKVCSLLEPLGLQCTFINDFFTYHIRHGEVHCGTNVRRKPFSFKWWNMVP

SMILES | IC50
COc1cc(C(=O)N2[C@H]3CC[C@@H]2[C@H](N)C3)cc2nc(-c3cc4ccc([C@@H](C)NC(=O)N5CC(C#N)C5)nc4n3CC3CC3)c(C)n12 [Example 234, ~{N}-[(1~{R})-1-[2-[7-[(1~{R},2~{R},4~{S})-2-amino-7-azabicyclo[2.2.1]heptane-7-carbonyl]-5-methoxy-3-methylimidazo [1,2-a]pyridin-2-yl]-1-(cyclopropylmethyl)pyrrolo [2,3-b]pyridin-6-yl]ethyl]-3-cyanoazetidine-1-carboxamide] | 149 nM
COc1cc(C(=O)N[C@@H]2CC[C@H]3CC[C@@H]2N3)cc2nc(-c3cc4ccc(N(C(F)F)S(C)(=O)=O)nc4n3CC3CC3)c(C)n12 [Example 298, ~{N}-[(1~{S},2~{R}, 5~{R})-8-azabicyclo [3.2.1]octan-2-yl]-2-[1-(cyclopropylmethyl)-6-[difluoromethyl (methylsulfonyl)amino]pyrrolo[2,3-b]pyridin-2-yl]-5-methoxy-3-methylimidazo[1,2-a]pyridine-7-carboxamide] | 30000 nM
COc1cc(C(=O)N2[C@H]3CC[C@@H]2[C@H](N)[C@H](O)C3)cc2nc(-c3cc4ccc([C@@H](C)NC(=O)C(C)(C)C)nc4n3CC3CC3)c(C)n12 [Example 60, ~{N}-[(1~{R})-1-[2-[7-[(1~{R},2~{S},3~{R}, 5~{S})-2-amino-3-hydroxy-8-azabicyclo[3.2.1]octane-8-carbonyl]-5-methoxy-3-methylimidazo [1,2-a]pyridin-2-yl]-1-(cyclopropylmethyl)pyrrolo[2,3-b]pyridin-6-yl]ethyl]-2,2-dimethylpropanamide] | 226 nM
COc1cc(C(=O)N2C[C@H](N)C[C@@H](F)C2)cc2nc(-c3cc4ccc([C@@H](C)NC(=O)C56CC(F)(C5)C6)nc4n3CC3CC3)c(C)n12 [Example 36, ~{N}-[(1~{R})-1-[2-[7-[(3~{R}, 5~{R})-3-amino-5-fluoropiperidine-1-carbonyl]-5-methoxy-3-methylimidazo[1,2-a]pyridin-2-yl]-1-(cyclopropylmethyl)pyrrolo[2,3-b]pyridin-6-yl]ethyl]-3-fluorobicyclo[1.1.1] pentane-1-carboxamide] | 369 nM
COc1cc(C(=O)N2CCC[C@@H](N)C2)cc2nc(-c3cc4ccc([C@@H](C)NCC(F)(F)F)nc4n3CC3CC3)c(C)n12 [Example 267, [(3~{R})-3-aminopiperidin-1-yl]-[2-[1-(cyclopropylmethyl)-6-[(1~{R})-1-(2,2,2-trifluoroethylamino)ethyl]pyrrolo[2,3-b]pyridin-2-yl]-5-methoxy-3-methylimidazo[1,2-a]pyridin-7-yl]methanone] | 521 nM
COc1cc(C(=O)N2[C@H]3CC[C@@H]2[C@H](N)C3)cc2nc(-c3cc4ccc(N5CC(c6ccccc6)CCS5(=O)=O)nc4n3CC3CC3)c(C)n12 (some centres unmarked) [Example 453, [(1~{R},2~{R},4~{S})-2-amino-7-azabicyclo [2.2.1]heptan-7-yl]-[2-[1-(cyclopropylmethyl)-6-(1,1-dioxo-4-phenylthiazinan-2-yl)pyrrolo[2,3-b]pyridin-2-yl]-5-methoxy-3-methylimidazo[1,2-a]pyridin-7-yl]methanone] | 9320 nM
COc1cc(C(=O)N2C[C@H](N)CC[C@@H]2C)cc2nc(-c3cc4ccc(N(C(F)F)S(C)(=O)=O)nc4n3CC34CC(C3)C4)c(C)n12 [Example 496, ~{N}-[2-[7-[(2~{S}, 5~{R})-5-amino-2-methylpiperidine-1-carbonyl]-5-methoxy-3-methylimidazo[1,2-a]pyridin-2-yl]-1-(1-bicyclo [1.1.1]pentanylmethyl)pyrrolo [2,3-b]pyridin-6-yl]-~{N}-(difluoromethyl) methanesulfonamide] | 418 nM
COc1cc(C(=O)N2CC[C@@H](O)[C@@H](N)C2)cc2nc(-c3cc4ccc([C@@H](C)NC(=O)c5ccccc5)nc4n3CC3CC3)c(C)n12 [Example 115] | 177 nM
CCC1CC[C@@H]2CCN(C(=O)c3cc(OC)n4c(C)c(-c5cc6ccc([C@@H](C)NC(=O)C78CC(F)(C7)C8)nc6n5CC5CC5)nc4c3)C[C@@H]2N1 (some centres unmarked) [Example 12, ~{N}-[(1~{R})-1-[2-[7-[(4~{a}~{R}, 8~{a}~{R})-2-ethyl-2,3,4,4~{a}, 5,6,8,8~{a}-octahydro-1~{H}-1,7-naphthyridine-7-carbonyl]-5-methoxy-3-methylimidazo[1,2-a]pyridin-2-yl]-1-(cyclopropylmethyl)pyrrolo[2,3-b]pyridin-6-yl]ethyl]-3-fluorobicyclo[1.1.1] pentane-1-carboxamide] | 29100 nM
COc1cc(C(=O)N2C[C@H](N)[C@@H](F)C2)cc2nc(-c3cc4ccc(N(C(F)F)S(C)(=O)=O)nc4n3CC3CC3)c(C)n12 [Example 290, ~{N}-[2-[7-[(3~{S}, 4~{S})-3-amino-4-fluoropyrrolidine-1-carbonyl]-5-methoxy-3-methylimidazo [1,2-a]pyridin-2-yl]-1-(cyclopropylmethyl)pyrrolo [2,3-b]pyridin-6-yl]-~{N}-(difluoromethyl) methanesulfonamide] | 9870 nM
COc1cc(C(=O)N2CCC3CCNCC32)cc2nc(-c3cc4ccc(N(C(F)F)S(C)(=O)=O)nc4n3CC3CC3)c(C)n12 (centres unmarked) [Example 322, ~{N}-[2-[7-(2,3,3~{a}, 4,5,6,7,7~ {a}-octahydropyrrolo[2,3-c]pyridine-1-carbonyl)-5-methoxy-3-methylimidazo [1,2-a]pyridin-2-yl]-1-(cyclopropylmethyl)pyrrolo [2,3-b]pyridin-6-yl]-~{N}-(difluoromethyl) methanesulfonamide] | 258 nM
COc1cc(C(=O)N2[C@H]3CC[C@@H]2[C@H](N)C3)cc2nc(-c3cc4ccc([C@@H](C)N5CCOC5=O)nc4n3CC3CC3)c(C)n12 [Example 275, 3-((R)-1-(2-(7-((1R,2R,4S)-2-amino-7-azabicyclo[2.2.1]heptane-7-carbonyl)-5-methoxy-3-methylimidazo[1,2-a]pyridin-2-yl)-1-(cyclopropylmethyl)-1H-pyrrolo[2,3-b]pyridin-6-yl)ethyl)oxazolidin-2-one] | 14.1 nM
COc1cc(C(=O)N2CCC[C@@H](N)C2)cc2nc(-c3cc4ccc([C@@H](C)NC(=O)OC5CCCC5)nc4n3CC3CC3)c(C)n12 [Example 255, cyclopentyl~{N}-[(1~{R})-1-[2-[7-[(3~{R})-3-aminopiperidine-1-carbonyl]-5-methoxy-3-methylimidazo[1,2-a]pyridin-2-yl]-1-(cyclopropylmethyl)pyrrolo [2,3-b]pyridin-6-yl]ethyl] carbamate] | 286 nM

Further molecules by falling IC50, results first:

IC50 | SMILES
144 nM | COc1cc(C(=O)N2[C@H]3CC[C@@H]2[C@H](N)C3)cc2nc(-c3cc4ccc([C@@H](C)Nc5ccccn5)nc4n3CC3CC3)c(C)n12 [Example 261, [(1~{R},2~{R},4~{S})-2-amino-7-azabicyclo [2.2.1]heptan-7-yl]-[2-[1-(cyclopropylmethyl)-6-[(1~{R})-1-(pyridin-2-ylamino)ethyl]pyrrolo[2,3-b]pyridin-2-yl]-5-methoxy-3-methylimidazo[1,2-a]pyridin-7-yl]methanone]
115 nM | CCc1ccc2cc(-c3nc4cc(C(=O)N5[C@H]6CC[C@@H]5[C@H](N)C6)cc(OC)n4c3C)n(CC3CC3C)c2n1 (some centres unmarked) [Example 503, [(1~{R},2~{R},4~{S})-2-amino-7-azabicyclo [2.2.1]heptan-7-yl]-[2-[6-ethyl-1-[(2-methylcyclopropyl)methyl]pyrrolo[2,3-b]pyridin-2-yl]-5-methoxy-3-methylimidazo[1,2-a]pyridin-7-yl]methanone]
104 nM | COc1cc(C(=O)N2CCC[C@@H](N)C2)cc2nc(-c3cc4ccc(N(C(F)F)S(C)(=O)=O)nc4n3CC3CC3)c(C3CC3)n12 [Example 391, ~{N}-[2-[7-[(3~{R})-3-aminopiperidine-1-carbonyl]-3-cyclopropyl-5-methoxyimidazo [1,2-a]pyridin-2-yl]-1-(cyclopropylmethyl)pyrrolo [2,3-b]pyridin-6-yl]-~{N}-(difluoromethyl) methanesulfonamide]
80.7 nM | COc1cc(C(=O)N2[C@H]3CC[C@@H]2[C@H](N)C3)cc2nc(-c3cc4ccc([C@@H](C)NC(=O)N5CCC(F)(F)C5)nc4n3CC3CC3)c(C)n12 [Example 243, ~{N}-[(1~{R})-1-[2-[7-[(1~{R},2~{R},4~{S})-2-amino-7-azabicyclo[2.2.1]heptane-7-carbonyl]-5-methoxy-3-methylimidazo [1,2-a]pyridin-2-yl]-1-(cyclopropylmethyl)pyrrolo [2,3-b]pyridin-6-yl]ethyl]-3,3-difluoropyrrolidine-1-carboxamide]
54.5 nM | COc1cc(C(=O)N2[C@H]3CC[C@@H]2[C@H](N)C3)cc2nc(-c3cc4ccc([C@@H](C)NC(=O)N5CCOCC5)nc4n3CC3CC3)c(C)n12 [Example 241, ~{N}-[(1~{R})-1-[2-[7-[(1~{R},2~{R},4~{S})-2-amino-7-azabicyclo[2.2.1]heptane-7-carbonyl]-5-methoxy-3-methylimidazo [1,2-a]pyridin-2-yl]-1-(cyclopropylmethyl)pyrrolo [2,3-b]pyridin-6-yl]ethyl] morpholine-4-carboxamide]
41 nM | COc1cc(C(=O)N2[C@H]3CC[C@@H]2[C@H](N)C3)cc2nc(-c3cc4ccc([C@@H](C)NC(=O)C5CCOCC5)nc4n3CC3CC3)c(C)n12 [Example 150, ~{N}-[(1~{R})-1-[2-[7-[(1~{R},2~{R},4~{S})-2-amino-7-azabicyclo[2.2.1]heptane-7-carbonyl]-5-methoxy-3-methylimidazo [1,2-a]pyridin-2-yl]-1-(cyclopropylmethyl)pyrrolo [2,3-b]pyridin-6-yl]ethyl] oxane-4-carboxamide]
32.7 nM | COc1cc(C(=O)N2[C@H]3CC[C@@H]2[C@H](N)C3)cc2nc(-c3cc4ccc([C@@H](C)NC(=O)c5cncs5)nc4n3CC3CC3)c(C)n12 [Example 72, ~{N}-[(1~{R})-1-[2-[7-[(1~{R},2~{R},4~{S})-2-amino-7-azabicyclo[2.2.1]heptane-7-carbonyl]-5-methoxy-3-methylimidazo [1,2-a]pyridin-2-yl]-1-(cyclopropylmethyl)pyrrolo [2,3-b]pyridin-6-yl]ethyl]-1,3-thiazole-5-carboxamide]
